In paper PMC4848641, “The Scorpion Toxin Analogue BmKTX-D33H as a Potential Kv1.3 Channel-Selective Immunomodulator for Autoimmune Diseases” (Toxins, 2016):
“Also recorded” adds a separate entry of the source. Where a SMILES comes first, the peptide text is derived from it. Bridges are numbered along the chain shown (N, C = ends).

Assays:
Kv1.3 channels = assay: Whole-cell patch-clamp, Kv1.3 channel currents; type: cell-based; details: 10 pM, 200 ms depolarizing steps from holding potential −80 mV to +50 mV, pH 7.4, means ± S.E. of at least three experiments
Description: (§1) Whole cell patch-clamp recordings of Kv1.3 channel were obtained from human T cells. Electrophysiological experiments of other assayed potassium channels were performed on HEK293 cells transfected with cDNA encoding Kv1.1, Kv1.2, Kv1.3, Kv7.1, Kv11.1, KCa2.2, KCa2.3, and KCa3.1 channels using TurboFect Reagent (ThermoSci., Waltham, MA, USA). The cDNAs were subcloned into the Xho I/Bam HI sites of pIRES2-EGFP, a bicistronic expression vector (Clontech, Mountain View, CA, USA) coexpressed with enhanced GFP. The constructs were verified by DNA sequencing. Currents were recorded on eGFP-expression positive cells one to three days post-transfection. Electrophysiological experiments were performed using protocols according to previously published references. Cells were bathed with mammalian Ringer’s solution: 5 mM KCl, 140 mM NaCl, 2 mM CaCl2, 1 mM MgCl2, […], 10 mM D-glucose (adjusted to pH 7.4 with NaOH). A multichannel microperfusion system MPS-2 (INBIO Inc, Wuhan, China) was used to exchange the external recording bath solution. […] Membrane currents were measured with an EPC 10 patch clamp amplifier (HEKA Elektronik, Lambrecht/Pfalz, Germany) interfaced to a computer running acquisition and analysis software (Pulse, v8.80, HEKA Elektronik, Lambrecht/Pfalz, Germany). […]

Kv1.1 = assay: Whole-cell patch-clamp, Kv1.1 channel currents (transfected HEK293 cells); type: cell-based; details: 1 μM, −80 mV to +50 mV, pH 7.4, means ± S.E. of at least three experiments
Description: as §1

Kv1.2 = assay: Whole-cell patch-clamp, Kv1.2 channel currents (transfected HEK293 cells); type: cell-based; details: micromolar concentration (1 μM), pH 7.4
Description: as §1

Kv1.7 = assay: Whole-cell patch-clamp, Kv1.7 (Kv7.1 in legend and methods) channel currents (transfected HEK293 cells); type: cell-based; details: micromolar concentration (1 μM), pH 7.4
Description: as §1

Kv11.1 = type: cell-based; details: micromolar concentration (1 μM); HEK293 cells, patch-clamp, pH 7.4
Description: as §1

KCa2.2 = assay: Whole-cell patch-clamp, KCa2.2 channel currents (transfected HEK293 cells); type: cell-based; details: micromolar concentration (1 μM), pH 7.4
Description: as §1

KCa2.3 = assay: Whole-cell patch-clamp, KCa2.3 channel currents (transfected HEK293 cells); type: cell-based; details: micromolar concentration (1 μM), pH 7.4
Description: as §1

KCa3.1 = assay: Whole-cell patch-clamp, KCa3.1 channel currents (transfected HEK293 cells); type: cell-based; details: micromolar concentration (1 μM), pH 7.4
Description: as §1

[1] = tested on: Kv1.3 channels on the freshly isolated CD3^+ T cells; assay: Whole-cell patch-clamp, Kv1.3 currents in freshly isolated human CD3^+ T cells; type: cell-based; details: pH 7.4, means ± S.E. of at least three experiments
Description: as §1

Jurkat cells [2] = tested on: Jurkat cells
Text: (§2) Jurkat E6-1 cells were obtained from the American Tissue Culture Collection (ATCC, Manassas, VA, USA) and cultured in RPMI-1640 supplied with 10% fetal bovine serum (FBS).
(§3) Peripheral blood (PB) obtained from four healthy volunteers was approved by the Ethics Committee of the College of Life Sciences in Wuhan University (Permit number: ECCLS20120076, approved at 3 May 2012). Ficoll gradients were used to isolate mononuclear cells from PB. The CD3^+ T cells were then purified using EasySep Isolation Kit (StemCell Technologies, Vancouver, BC, Canada), and cultured at density of 5 × 10^5 cells per cm^2 in RPMI-1640 medium supplemented with 2 mM glutamine, and 10% FBS. […]
(§4) The Jurkat cells or peripheral blood CD3^+ cells were seeded in round-bottom plates (Corning-costar) at 5 × 10^5 cells per cm^2. […] The cells were cultured for 48 h, and cell proliferation was measured using CellTiter 96 AQueous One Solution Cell Proliferation Assay Kit (Promega, Madison, WI, USA) in accordance with the manufacturer’s guide. Absorbance was read at a wavelength of 490 nm.
(§5) The IL-2, IFN-γ, and TNF-α levels in supernatants of stimulated cells were measured with ELISA kit (Dakewei, Shenzhen, China) following the manufacturer’s protocol. Absorbance was measured with an automatic plate reader at a wavelength of 450 nm with reference at 630 nm.

Jurkat cells [3] = type: cell-based; details: 48 h post-stimulation with 100 ng/mL PMA and 1 mM Ionmycin; CellTiter 96 AQueous One Solution, 490 nm
Text: as §2
as §3, with “FBS. All the T-cells were cultured at a temperature of 37 °C in a humidified 95% air and 5% CO2 atmosphere. The Jurkat cells were stimulated with 100 ng/ml phorbol ester (PMA) (Sigma-Aldrich, Munich, Germany) and […] Ionmycin (ION) (Sigma-Aldrich, Munich, Germany).” for “FBS.”
as §4

CD3^+ T cells [4] = details: pre-incubation for 1 h before activation; anti-CD3/CD28 beads; ELISA
Description: as §3, with “FBS. All the T-cells were cultured at a temperature of 37 °C in a humidified 95% air and 5% CO2 atmosphere.” for “FBS.”
as §4, §5

CD3^+ T cells [5] = type: cell-based; details: human CD3^+ T cells, anti-CD3/CD28 beads, 48 h; CellTiter 96 AQueous One Solution, 490 nm
Description: Peripheral blood (PB) obtained from four healthy volunteers was approved by the Ethics Committee of the College of Life Sciences in Wuhan University (Permit number: ECCLS20120076, approved at 3 May 2012). Ficoll gradients were used to isolate mononuclear cells from PB. The CD3^+ T cells were then purified using EasySep Isolation Kit (StemCell Technologies, Vancouver, BC, Canada), and cultured at density of 5 × 10^5 cells per cm^2 in RPMI-1640 medium supplemented with 2 mM glutamine, and 10% FBS. All the T-cells were cultured at a temperature of 37 °C in a humidified 95% air and 5% CO2 atmosphere. The Jurkat cells were stimulated with 100 ng/ml phorbol ester (PMA) (Sigma-Aldrich, Munich, Germany) and […] Ionmycin (ION) (Sigma-Aldrich, Munich, Germany). The CD3^+ T cells were stimulated with anti-CD3/CD28 antibodies beads (Life Technologies, Waltham, MA, USA). BmKTX-D33H (ranged from 0.1 to 100 nM) was added for 1 h prior to stimulation.
as §4

Lewis rats = assay: Active delayed-type hypersensitivity (DTH), ear swelling; type: in vivo; details: female Lewis rats; 100 μg/kg, single subcutaneous injection at ovalbumin challenge; 4, 6, and 24 h after challenge; vs vehicle control
Description: The animal trial was approved by the Animal Use and Care Committee of the Wuhan University. Female Lewis rats (9–10 weeks of age) were purchased from Charles River Laboratories and housed under pathogen-free conditions. Active DTH was induced as describe previously by immunizing rats against antigen of ovalbumin (Sigma-Aldrich, Munich, Germany) emulsified with complete Freund’s adjuvant (Sigma-Aldrich, Munich, Germany). The emulsion was injected subcutaneously into Lewis rats in order to prime the immune system and develop memory T cells. Seven days later, the rats were challenged again with ovalbumin (20 μg in 20 μL of saline solution) in the pinna of one ear (challenged ear). The other side of ear received saline solution as challenge control. Rats in control group received a single subcutaneous injection of 0.5 mL vehicle (saline solution) in the scruff of the neck, at the time of second-challenge. Whereas, rats in drug-treatment group received 100 μg/kg BmKTX-D33H (in 0.5 mL vehicle) administrated using the same method. The change for thickness of ear (at 4, 6, and 24 h post-challenge) was measured as an indication of the inflammatory reaction and DTH severity.

Kv1.3 channel [6] = assay: Selectivity towards the Kv1.3 channel over other K^+ channels; type: cell-based; details: versus Kv1.1, Kv1.2, Kv1.7 (Kv7.1), Kv11.1, KCa2.2, KCa2.3, and KCa3.1
Description: as §1

Kv1.3 channel [7] = details: ref [29], cited from earlier work
Text: The venomous scorpions, which have lived on earth for over 400 million years, rely on their venoms for their efficient defense and capture strategy. During their molecular evolution, scorpions produced hundreds of peptide-based toxins in their venoms, typically targeting ion channels with a high degree of molecular diversity. Accordingly, scorpion venoms have been considered as invaluable resources of ion channel inhibitors. […] Because ADWX-1 is a potent blocker of the […] channel (IC50 value of 0.6 nM), we further investigated the pharmacological profile of BmKTX-D33H. || The most remarkable feature of BmKTX-D33H is its sought-after selectivity towards the Kv1.3 channel. Indeed, improving the selectivity of scorpion toxins (especially Kv1.1 versus Kv1.3 channel subtypes) still remains a serious challenge. […] For ADWX-1 ...

Structure (SMILES): CC[C@H](C)[C@H](NC(=O)CNC(=O)[C@@H](N)C(C)C)C(=O)N[C@@H](CC(N)=O)C(=O)N[C@H](C(=O)N[C@@H](CCCCN)C(=O)N[C@H]1CSSC[C@@H]2NC(=O)[C@H](CCCCN)NC(=O)CNC(=O)[C@H](Cc3ccccc3)NC(=O)[C@H](CCCNC(=N)N)NC(=O)[C@H](CCSC)NC(=O)CNC(=O)[C@H](C)NC(=O)[C@H](CC(=O)O)NC(=O)[C@H](CCCCN)NC(=O)[C@@H]3CSSC[C@@H](C(=O)N[C@H](C(=O)N4CCC[C@H]4C(=O)N[C@@H](CCCCN)C(=O)O)[C@@H](C)O)NC(=O)[C@H](Cc4c[nH]cn4)NC(=O)[C@H](CSSC[C@H](NC(=O)[C@H](CCC(N)=O)NC(=O)CNC(=O)[C@H](CO)NC(=O)[C@H](Cc4c[nH]cn4)NC(=O)[C@H](CCCCN)NC1=O)C(=O)N[C@@H](CC(C)C)C(=O)N[C@@H](CCCCN)C(=O)N1CCC[C@H]1C(=O)N3)NC(=O)[C@H](CCCCN)NC(=O)CNC(=O)[C@H](CC(N)=O)NC(=O)[C@H]([C@@H](C)CC)NC2=O)C(C)C [BmKTX-D33H] (H-VGINVKCKHSGQCLKPCKDAGMRFGKCINGKCHCTPK-OH; disulfide 7-27, 13-32, 17-34; N-terminus and C-terminus assumed)
- inhibition of Kv1.3 channel currents (Kv1.3 channels): 56.0% ± 2.0%
- inhibition of Kv1.1 channel currents (Kv1.1): about 46.6% ± 2.0%
- sensitivity of Kv1.2 channel (Kv1.2): much less sensitive
- sensitivity of Kv1.7 channel (Kv1.7): much less sensitive
- sensitivity of Kv11.1 channel (Kv11.1): much less sensitive
- sensitivity of KCa2.2 channel (KCa2.2): much less sensitive
- sensitivity of KCa2.3 channel (KCa2.3): much less sensitive
- sensitivity of KCa3.1 channel (KCa3.1): much less sensitive
- inhibition of Kv1.3 currents in CD3^+ T cells ([1]; 1 nM): 63.3% ± 2.9%
- inhibition of Kv1.3 currents in CD3^+ T cells ([1]; 10 nM): 90.7% ± 2.1%
- IC50 (Jurkat cells [2]; 33 h): 23.9 ± 20.1 nM
- IL-2 expression of Jurkat cells (Jurkat cells [2]; stimulated by PMA + ION, ELISA): significantly reduced
- proliferation (growth) of Jurkat cells (Jurkat cells [3]): significantly inhibited; also recorded: Proliferation of activated Jurkat cells was suppressed
- IFN-γ, TNF-α and IL-2 secretion of human T cells (CD3^+ T cells [4]): robust dose-dependent reduction
- proliferation (growth) of CD3^+ cells (CD3^+ T cells [5]): suppressed the growth of CD3^+ cells; also recorded: Suppression of cytokine production and in vitro proliferation
- DTH response, change of ear thickness (Lewis rats): significantly improved the delayed-type hypersensitivity (DTH) responses; also recorded: changes of ear thickness were significantly reduced; also recorded: dramatically reduced the in vivo DTH responses
- selectivity towards the Kv1.3 channel as compared to other K^+ channels (Kv1.3 channel [6]): more than 1000 fold
- potency on the Kv1.3 channel compared with wild-type BmKTX (Kv1.3 channel [7]; compared to wild-type BmKTX): increased potency (as compared to wild-type BmKTX)
- IC50 (Kv1.3 channel [7]): 0.0154 nM
